The source of these data is patent US9023853B2, “Janus kinase 2 (JAK2) inhibitor for the treatment of lupus” (Cephalon, Inc., priority 2010, dated 2015).

What all share (format): in vivo, mouse
One experiment has as its system IL-6. In words: Serum IL-6 in NZM mice. As to the method: (§1) For the processing of serum samples for cytokine analysis, frozen plasma at −80° C. was thawed on ice, vortexed, and centrifuged for 10 minutes to remove debris and aggregates. A total of 25-50 μL of serum was used for Luminex® assays following the manufacturer's instructions. Ten different mouse cytokines were measured using the mouse cytokine 10-plex bead kit (Invitrogen, Carlsbad, Calif., no. LMC0001). Briefly, filter plates (Millipore, Billerica, Mass., no. MAIPSWU10), were pre-wet with 200 μL of wash solution (kit component) and 25 μL of beads were added per well. […]
(§2) Age mated, female, NZM or NZW/LacJ, mice were matured for the study of lupus nephritis for a total of 7 months or 210 days at which time urine was collected for proteinuria detection. Mice with 0.5-1.0 mg/ml of urine protein as determined by an optical density-based total protein precipitation assay and cross-checked for 30-300 mg/dl of protein as determined by a stick assay were considered proteinuria positive and selected for study entry. […] End-stage lupus nephritis was evaluated by histopathology and scored by a board certified pathologist for the assessment of total renal damage in diseased animals using the scoring method described by Smith et al (Smith, Dong et al. 2007). […]

A further experiment relates to NZM mice. In words: Splenomegaly (EOS spleen mass) in NZM mice. On the procedure: Age mated, female, NZM or NZW/LacJ, mice were matured for the study of lupus nephritis for a total of 7 months or 210 days at which time urine was collected for proteinuria detection. Mice with 0.5-1.0 mg/ml of urine protein as determined by an optical density-based total protein precipitation assay and cross-checked for 30-300 mg/dl of protein as determined by a stick assay were considered proteinuria positive and selected for study entry. Groups were normalized to contain a Gaussian distribution of proteinuria positive animals (i.e., ⅓ low proteinuria, ⅓ medium, ⅓ high) then randomized between groups before ear marking and taking baseline measures including urine and serum collections. A total of five mice from the total population were randomly selected for baseline kidney histology evaluation. Treatments and tests for each group are as described in FIG. 12. Briefly, with a minimum of 10 mice per group, COMPOUND A was administered at 100 mg/kg or 55 mg/kg, both twice a day and orally. […] Vehicle included 3% DMSO, 10% Solutol and 87% PBS. […] End-stage lupus nephritis was evaluated by histopathology and scored by a board certified pathologist for the assessment of total renal damage in diseased animals using the scoring method described by Smith et al (Smith, Dong et al. 2007). […] Day-98 or “end of treatment/study” represents 310 days of age for the NZM animals.

For the next experiment, the system named is IL-13. Briefly: Serum IL-13 in NZM mice. On the procedure:
as §1, §2

Another experiment deals with plasma cells. In words: BrdU short-lived / long-lived plasma cells in spleen and bone marrow of NZM mice. The following applies: 15 week old NZM mice, two weeks. As to the method: Twenty-four hours before the end of the study each mouse was injected i.p. with 2 mg of thymidine analog, bromodeoxyuridine (BrdU). BrdU (Cat#550891) and an anti-BrdU-FITC staining kit (Cat#559619) were obtained from BD Biosciences (Franklin Lakes, N.J.). Twenty-four hours after BrdU injection spleen and bone marrow were individually processed to isolate leukocytes for flow staining. Cells were surface stained with anti-CD19-Cyc, anti-CD38-PE and anti-CD138-APC (all obtained from eBioscience in San Diego, Calif.) as well as anti-BrdU-FITC (from the BrdU kit). Analysis included gating on live SSC/FSC populations, CD19-negative, CD38-positive and gating on CD138-positive, BrdU-negative (non-cycling, long-lived plasma cells, region R2) or BrdU-positive (cycling, short-lived plasma cells, region R1) as shown in FIG. 42. All samples were analyzed using an Accuri C6 Flow Cytometer. Complete media (R10) was used for all experiments involving the ex vivo culture of splenocytes for all Elispot experiments. […] The Figures depict spleen short-lived plasma cells (FIG. 38), bone marrow isolated short-lived plasma cells (FIG. 39), spleen long-lived plasma cells (FIG. 40), and bone marrow isolated long-lived plasma cells (FIG. 41). Also depicted are representative dot plots providing gating examples and short-lived plasma cells, R1, and long-lived plasma cells, R2, gates (FIG. 42). Graphs show mean±SEM, statistical test included two-tailed, Mann-Whitney t-test, *p<0.05 was considered significant. All events shown were originally size gated on live cells, graphs show CD19-negative, CD38/CD138-double positive populations that had either incorporated BrdU (cycling, thus short-lived plasma cells, see region R1) or not incorporated BrdU (non-cycling, thus long-lived plasma cells, see region R2).

The subject of the next experiment is IL-17A. In words: Serum IL-17A in NZM mice. As to the method: as §1, §2
Another experiment deals with CXCL10/IP-10. Briefly: Serum CXCL10/IP-10 in NZM mice. As to the method:
as §1, §2

`CN1CCN(c2cccc(Nc3nc4c(-c5ccc(S(C)(=O)=O)cc5)cccn4n3)c2)CC1` [COMPOUND A, [8-(4-methanesulfonyl-phenyl)-[1,2,4]triazolo[1,5-a]pyridin-2-yl]-[3-(4-methyl-piperazin-1-yl)-phenyl]-amine]: the “serum IL-6 decrease compared to vehicle” value is recorded as 98.2% with IL-6 (55 mg/kg) and 97.0% in the experiment with IL-6 (100 mg/kg). Moreover, the “total EOS spleen mass decrease compared to vehicle” value in the experiment on NZM mice (55 mg/kg) stood at 71.8%; with NZM mice (100 mg/kg), 73.5%. In addition, the “serum IL-13 decrease compared to vehicle” value came to 86.2% in the experiment with IL-13 (55 mg/kg) and 79.5% in the experiment with IL-13 (100 mg/kg). Also, the “short lived plasma cells in the bone marrow” value with plasma cells (100 mg/kg orally b.i.d., FIG. 39) is “impacted”. Besides, the “long lived plasma cells in the bone marrow” value with plasma cells (100 mg/kg orally b.i.d., FIG. 41) is reported as “impacted”. Moreover, the “long lived plasma cells in the spleen” value in the experiment with plasma cells (all three doses (100, 55, 30 mg/kg) orally b.i.d., FIG. 40) is reported as “impacted”. Further, the entries for the “serum IL-17A decrease compared to vehicle” value in the experiment on IL-17A (55 mg/kg) and with IL-17A (100 mg/kg) were 79.1% and 86.2%, respectively. Moreover, the “serum CXCL10/IP-10 decrease compared to vehicle” value is listed as 47.3% with CXCL10/IP-10 (55 mg/kg) and 80.0% with CXCL10/IP-10 (100 mg/kg).
